ChEMBL document CHEMBL3045031, “Study on synthesis of thalidomide analogues and their bioactivities; inhibition on iNOS pathway and cytotoxic effects” (Med Chem Res, 2012)
pIC50: −log10 of the molar value.

What was measured:
[1] = Cytotoxicity against Homo sapiens (human) HONE1 cells after 24 hr by MTT assay; format: functional, cell-based; conditions: HONE1, 24 h
[2] = tested on: HL-60; experiment: Cytotoxicity against Homo sapiens (human) HL60 cells after 24 hr by MTT assay; format: functional, cell-based; conditions: HL-60, 24 h
[3] = tested on: HEp-2; experiment: Cytotoxicity against Homo sapiens (human) Hep2 cells after 24 hr by MTT assay; format: functional, cell-based; conditions: HEp-2, 24 h
[4] = target: T1, Nitric oxide synthase, inducible (Mus musculus) (UniProt P29477); experiment: Inhibition of iNOS in Mus musculus (mouse) RAW 264.7 cells assessed as inhibition of LPS-induced nitrite production pretreated for 24 hr before stimulation with LPS measured after 18 hr by […]; design: concentration or dose not given beside the values; conditions: concentration not given here
T1 sequence (whole entry): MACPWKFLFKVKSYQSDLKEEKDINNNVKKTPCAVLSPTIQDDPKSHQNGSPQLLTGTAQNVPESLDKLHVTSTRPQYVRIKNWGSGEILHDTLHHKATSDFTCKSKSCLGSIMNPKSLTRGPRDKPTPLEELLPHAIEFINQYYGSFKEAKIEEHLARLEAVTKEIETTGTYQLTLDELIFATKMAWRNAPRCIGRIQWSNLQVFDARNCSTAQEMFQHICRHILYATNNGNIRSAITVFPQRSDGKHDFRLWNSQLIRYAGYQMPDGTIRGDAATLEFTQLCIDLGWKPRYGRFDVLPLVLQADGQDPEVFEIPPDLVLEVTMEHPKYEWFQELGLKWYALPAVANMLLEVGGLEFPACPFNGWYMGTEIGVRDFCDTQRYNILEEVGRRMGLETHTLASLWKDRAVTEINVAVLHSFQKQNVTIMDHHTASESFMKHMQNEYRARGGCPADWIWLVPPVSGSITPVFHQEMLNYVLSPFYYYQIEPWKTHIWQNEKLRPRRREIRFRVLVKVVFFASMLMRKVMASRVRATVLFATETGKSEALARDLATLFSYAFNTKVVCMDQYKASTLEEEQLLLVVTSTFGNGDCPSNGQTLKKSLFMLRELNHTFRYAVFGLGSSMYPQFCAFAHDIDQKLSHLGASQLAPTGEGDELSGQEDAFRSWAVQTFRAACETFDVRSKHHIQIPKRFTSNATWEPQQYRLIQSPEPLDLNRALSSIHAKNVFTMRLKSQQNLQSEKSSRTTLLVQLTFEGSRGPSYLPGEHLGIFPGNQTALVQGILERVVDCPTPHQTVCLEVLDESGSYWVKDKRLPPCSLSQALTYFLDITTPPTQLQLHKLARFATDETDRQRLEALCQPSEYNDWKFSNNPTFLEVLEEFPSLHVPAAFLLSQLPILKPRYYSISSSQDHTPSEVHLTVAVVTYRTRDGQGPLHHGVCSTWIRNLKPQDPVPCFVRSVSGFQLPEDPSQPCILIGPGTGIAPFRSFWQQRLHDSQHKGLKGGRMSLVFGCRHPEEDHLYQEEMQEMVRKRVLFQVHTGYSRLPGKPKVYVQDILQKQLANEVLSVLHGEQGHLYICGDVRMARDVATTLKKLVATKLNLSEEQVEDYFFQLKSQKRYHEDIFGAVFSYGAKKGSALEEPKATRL

[5] = tested on: NUGC; experiment: Cytotoxicity against Homo sapiens (human) NUGC cells after 24 hr by MTT assay; format: functional, cell-based

| inhibition [4] | Structure (SMILES) | pIC50 [1] | pIC50 [2] | pIC50 [3] | pIC50 [5] |
| --- | --- | --- | --- | --- | --- |
| 70.9% | Cc1ccc2c(c1)C(=O)N(c1ccc(-c3ccccc3)cc1)C2=O | < 3.70 | 4.23 | 3.98 |  |
| 81.4% | Nc1ccc(CN2C(=O)c3ccccc3C2=O)cc1 | < 3.70 | < 3.70 |  | < 3.70 |
| 91.9% | Cc1ccc2c(c1)C(=O)N(c1ccc(/N=N\c3ccccc3)cc1)C2=O | < 3.70 | 4.23 | 3.98 | < 3.70 |
| 81.4% | Nc1cccc(N2C(=O)c3cccc4cccc(c34)C2=O)c1 | < 3.70 | < 3.70 | 3.83 | < 3.70 |
| 90.6% | Nc1ccc(N2C(=O)c3cccc4cccc(c34)C2=O)cc1 | < 3.70 | < 3.70 | 4.36 | < 3.70 |
| 71.5% | O=C1c2ccccc2C(=O)N1c1ccc(Cl)cc1 |  | < 3.70 | 3.75 | < 3.70 |
| 84.6% | O=C1c2ccccc2C(=O)N1c1ccc(-c2ccccc2)cc1 | < 3.70 | 3.92 | 4.39 | < 3.70 |
| 94.5% | O=C1c2ccccc2C(=O)N1c1ccc(S)cc1 | < 3.70 | < 3.70 | < 3.70 | < 3.70 |
| 94.5% | O=C1c2ccccc2C(=O)N1c1ccc(Cl)cn1 | < 3.70 | 4.17 | 4.25 | < 3.70 |
| 87.3% | COc1ccc(N2C(=O)c3ccccc3C2=O)cc1 | < 3.70 | < 3.70 | < 3.70 | < 3.70 |
| 91.9% | Nc1cccc(CN2C(=O)c3ccccc3C2=O)c1 | < 3.70 | 4.11 |  | < 3.70 |
| 80.1% | N#Cc1ccccc1N1C(=O)c2ccccc2C1=O | < 3.70 | < 3.70 | < 3.70 | < 3.70 |
| 67.6% | O=C1c2cccc3cccc(c23)C(=O)N1c1ccccc1 | < 3.70 | < 3.70 | 4.35 | < 3.70 |
| 90.6% | O=C1c2ccccc2C(=O)N1c1cccc([N+](=O)[O-])c1 |  | 3.76 | 3.75 | < 3.70 |
| 67.6% | O=C1c2ccccc2C(=O)N1c1ccccn1 | 3.81 | < 3.70 | 4.18 | < 3.70 |
| 89.2% | O=C1c2ccccc2C(=O)N1c1ccccc1 [N-PHENYL-PHTHALIMIDE] |  | < 3.70 | < 3.70 | < 3.70 |

Second part, the molecule before the results:

| Structure (SMILES) | inhibition [4] | pIC50 [1] | pIC50 [2] | pIC50 [3] | pIC50 [5] |
| --- | --- | --- | --- | --- | --- |
| COc1ccc(N2C(=O)C3C4C=CC(CC4)C3C2=O)cc1 (stereo unspecified) | 84.6% |  | < 3.70 | < 3.70 | < 3.70 |
| O=C1CCC(N2C(=O)c3ccccc3C2=O)C(=O)N1 (stereo unspecified) | 28.2% |  |  |  |  |
| Nc1ccc(N2C(=O)[C@@H]3C4C=CC(CC4)[C@@H]3C2=O)cc1 | 87.9% |  | 3.78 | < 3.70 |  |
| Cc1cccc2c1C(=O)N(Cc1ccc(N)cc1)C2=O | 80.7% | < 3.70 | < 3.70 |  | < 3.70 |
| O=C1C2C3C=CC(CC3)C2C(=O)N1c1ncc(Cl)cc1Cl (stereo unspecified) | 77.9% | < 3.70 | 3.86 | < 3.70 |  |
| Cc1ccc2c(c1)C(=O)N(Cc1ccccc1N)C2=O | 98.4% | < 3.70 | < 3.70 |  | < 3.70 |
| O=C1C2C3C=CC(CC3)C2C(=O)N1c1ccc(-c2ccccc2)cc1 (stereo unspecified) | 86.6% |  | 3.98 | 4.33 | < 3.70 |
| N#Cc1ccc(N2C(=O)[C@@H]3C4C=CC(CC4)[C@@H]3C2=O)cc1 | 68.4% | < 3.70 |  |  |  |
| CC1=C(C)C(=O)N(Cc2ccccc2N)C1=O | 72.8% | < 3.70 | 3.86 |  | < 3.70 |
| O=C1C2C3C=CC(CC3)C2C(=O)N1c1ccc(Br)cn1 (stereo unspecified) | 56.6% |  | < 3.70 | 3.82 | < 3.70 |
| Nc1cccc(N2C(=O)C3C4C=CC(CC4)C3C2=O)c1 (stereo unspecified) | 68.4% | < 3.70 | 4.19 | 4.27 |  |
| Cc1ccc2c(c1)C(=O)N(c1ccc([N+](=O)[O-])cn1)C2=O | 74.8% | < 3.70 | < 3.70 | 3.76 | < 3.70 |
| O=C1C2C3C=CC(CC3)C2C(=O)N1c1ccc(S)cc1 (stereo unspecified) | 87.9% |  |  |  |  |
| Nc1ccccc1CN1C(=O)C2C3C=CC(CC3)C2C1=O (stereo unspecified) | 75.5% | < 3.70 | < 3.70 |  | < 3.70 |
| O=C1C2C3C=CC(CC3)C2C(=O)N1c1ccccc1 (stereo unspecified) | 82% | < 3.70 | 3.93 | 4.39 |  |
| O=C1c2ccccc2C(=O)N1c1ccccc1N1C(=O)c2ccccc2C1=O | 85.3% | < 3.70 | < 3.70 | 4.25 | < 3.70 |
| Nc1ccccc1N1C(=O)C2C3C=CC(CC3)C2C1=O (stereo unspecified) | 76.9% | < 3.70 | 4.17 | 4.49 | < 3.70 |
| O=C1C2C3C=CC(CC3)C2C(=O)N1c1ccc(Cl)cn1 (stereo unspecified) | 44.9% | < 3.70 | < 3.70 | < 3.70 | < 3.70 |
